{"source": "paper PMC7340583", "about": "“The yeast cell wall protein Pry3 inhibits mating through highly conserved residues within the CAP domain” (Biology Open, 2020)", "assay_in_all_cases": "radioligand binding, Q-sepharose adsorption, scintillation counting", "key": {"[1]": {"molecular_target": "T1, Pry3 CAP domain (Pry3-CAP) (Saccharomyces cerevisiae, UniProt P47033)", "T1 sequence (P47033 18-161)": "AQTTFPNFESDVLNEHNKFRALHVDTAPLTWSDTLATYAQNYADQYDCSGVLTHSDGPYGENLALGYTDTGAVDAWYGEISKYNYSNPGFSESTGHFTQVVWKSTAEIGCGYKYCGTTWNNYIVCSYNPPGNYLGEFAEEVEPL"}, "[2]": {"molecular_target": "T2, Pry3 CAP domain (Pry3-CAP) (Saccharomyces cerevisiae, UniProt P47033, P105C/A155C)", "T2 sequence (P47033 18-161 P105C/A155C)": "T1 sequence (P47033 18-161) with P88C, A138C", "conditions": "labelled compound; 20 mM Tris pH 7.5, 30 mM NaCl, 0.05% Triton X-100, 30°C, 1 h"}, "[3]": {"molecular_target": "T3, Pry3 CAP domain (Pry3-CAP) (Saccharomyces cerevisiae, UniProt P47033, C142S)", "T3 sequence (P47033 18-161 C142S)": "T1 sequence (P47033 18-161) with C125S", "conditions": "labelled compound; 20 mM Tris pH 7.5, 30 mM NaCl, 0.05% Triton X-100, 30°C, 1 h"}, "Pry1 CAP domain": {"molecular_target": "T4, Pry1 CAP domain (Saccharomyces cerevisiae, UniProt P47032)", "T4 sequence (P47032 20-299 limits assumed)": "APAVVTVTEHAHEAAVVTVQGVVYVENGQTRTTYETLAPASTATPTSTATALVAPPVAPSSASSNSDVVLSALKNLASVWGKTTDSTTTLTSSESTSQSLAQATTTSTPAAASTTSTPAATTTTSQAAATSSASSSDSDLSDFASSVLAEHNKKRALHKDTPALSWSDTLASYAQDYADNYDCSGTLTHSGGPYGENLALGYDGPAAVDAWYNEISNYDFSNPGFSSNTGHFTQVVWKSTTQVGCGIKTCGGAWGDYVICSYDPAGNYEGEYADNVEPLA", "description": "radioligand binding, Q-sepharose adsorption, scintillation counting on Pry1 CAP domain | Polyhistidine-tagged versions of the CAP domain of Pry1, Pry3 and mutant versions of Pry3 | The affinity of Pry3 to palmitic acid is thus similar to that of Pry1"}, "[4]": {"molecular_target": "T5, Pry3 CAP domain (Pry3-CAP) (Saccharomyces cerevisiae, UniProt P47033, V117M)", "T5 sequence (P47033 18-161 V117M)": "T1 sequence (P47033 18-161) with V100M", "conditions": "labelled compound; 20 mM Tris pH 7.5, 30 mM NaCl, 0.05% Triton X-100, 30°C, 1 h"}}, "note": "Numbering of substitutions follows the chain as printed. Like-named read-outs stand apart in the source and are kept apart here."}
{"smiles": "CC(C)CCC[C@@H](C)[C@H]1CC[C@H]2[C@@H]3CC=C4C[C@@H](O)CC[C@]4(C)[C@H]3CC[C@]12C", "note": "[cholesterol]", "values": [{"measurement": "Kd", "setting": "[1]", "result": 13.1, "unit": "µM"}, {"measurement": "radioligand binding, Q-sepharose adsorption, scintillation counting", "setting": "[2]", "result": "decreased sterol-binding of Pry3-CAP^P105C, A155C to background levels"}, {"measurement": "radioligand binding, Q-sepharose adsorption, scintillation counting", "setting": "[3]", "result": "as present in Pry3-CAP^C142S, disrupted sterol binding in vitro"}, {"measurement": "Kd", "setting": "Pry1 CAP domain; labelled compound, 20 mM Tris pH 7.5, 30 mM NaCl, 0.05% Triton X-100, 30°C, 1 h", "result": 1.88, "unit": "µM"}]}
{"smiles": "CCCCCCCCCCCCCCCC(=O)O", "note": "[palmitic acid]", "values": [{"measurement": "Kd", "setting": "[1]", "result": 114, "unit": "µM"}, {"measurement": "radioligand binding, Q-sepharose adsorption, scintillation counting", "setting": "[4]", "result": "Pry3^V117M failed to efficiently bind palmitic acid in vitro"}, {"measurement": "Kd", "setting": "Pry1 CAP domain", "result": 111, "unit": "µM"}]}
